Source: patent US12521450B2, “DNA, expression vector, transcript, cell, pharmaceutical composition, and medicine” (Hitachi, Ltd., priority 2021, dated 2026)

System: SF3B1 K700E mutant cell derived from the HEK293FT cells
Assay: GCV-concentration-dependent cell death, MTT assay, lentiviral HSV-TK (BRD9 intron) in genome-edited cells
Assay type: cell-based
Conditions: SF3B1 K700E mutant cell (one allele) vs SF3B1 normal cell; GCV 100 to 0.16 μg/mL, 48 hours; FIG. 7
Method: In this example, in order to verify the toxicity of a suicide gene in a cell having an SF3B1 K700E mutation in one allele in a genome, as in actual cancer cells, HEK293FT cells were genome-edited and an SF3B1 K700E mutant cell strain was established.
Meanwhile, an HSV-TK expression lentiviral vector containing the BRD9 intron was prepared using the pHR vector shown in SEQ ID NO: 11 (FIGS. 3A and 3B). The lentiviral vector was introduced into the SF3B1 K700E mutant strain and an SF3B1 normal strain as a control, and the number of cells killed by the addition of GCV was quantified using the MTT assay method. A detailed procedure will be shown below. […]
The solubilized solution of the MTT cell number measuring kit (Nacalai Tesque Inc.) was added into the HEK293FT cells at 100 μL/well, and the mixture was incubated at 37° C. After 20 hours, the absorbance at 570 nm (reference wavelength: 655 nm) was measured with the microplate reader.
The number of viable cells was calculated based on a standard curve using the above-mentioned serially diluted HEK293FT cells, and the viability was shown as a ratio when the number of cells in the GCV-free group was 100%. Further, the efficacy was evaluated by comparing the cytotoxicity due to GCV addition in the SF3B1 normal cell with the cytotoxicity of the SF3B1 K700E mutant cell. […]

## suicide gene containing the BRD9 intron: SFFV promoter, HSV-TK inserted with an intron of BRD9 containing no normal acceptor sequence, puromycin resistance gene linked by P2A
  viability (ratio when the number of cells in the GCV-free group was 100%): viability lower than that of the SF3B1 normal cell
